Source: patent US7538102B2, “Compounds for the treatment of Hepatitis C” (Bristol-Myers Squibb Company, priority 2007, dated 2009)

Legend:
HCV NS5B = biological target: T1, HCV NS5B (Hepatitis C virus genotype 1b, UniProt Q9WMX2); experiment: HCV NS5B RdRp enzyme assay (standard or modified); format: biochemical; details: HCV NS5B RdRp genotype 1b; standard or modified enzyme assay not specified; read-out: IC50
T1 construct: The protein was expressed with an 18 amino acid C-terminal truncation to enhance the solubility; made in house; host or cells: E. coli BL21(DE3)
Protocol: HCV NS5B RdRp cloning, expression, and purification. The cDNA encoding the NS5B protein of HCV, genotype 1b, was cloned into the pET21a expression vector. The protein was expressed with an 18 amino acid C-terminal truncation to enhance the solubility. The E. coli competent cell line BL21(DE3) was used for expression of the protein. Cultures were grown at 37° C. for ˜4 hours until the cultures reached an optical density of 2.0 at 600 nm. The cultures were cooled to 20° C. and induced with 1 mM IPTG. Fresh ampicillin was added to a final concentration of 50 μg/ml and the cells were grown overnight at 20° C.
Cell pellets (3 L) were lysed for purification to yield 15-24 mgs of purified NS5B. The lysis buffer consisted of 20 mM Tris-HCl, pH 7.4, 500 mM NaCl, 0.5% triton X-100, 1 mM DTT, 1mM EDTA, 20% glycerol, 0.5 mg/ml lysozyme, 10 mM MgCl2, 15 ug/ml deoxyribonuclease I, and Complete TM protease inhibitor tablets (Roche). After addition of the lysis buffer, frozen cell pellets were resuspended using a tissue homogenizer. To reduce the viscosity of the sample, aliquots of the lysate were sonicated on ice using a microtip attached to a Branson sonicator. The sonicated lysate was centrifuged at 100,000×g for 1 hr at 4° C. and filtered through a 0.2 μm filter unit (Corning).
The protein was purified using two sequential chromatography steps: Heparin sepharose CL-6B and polyU sepharose 4B (Pharmacia). The chromatography buffers were identical to the lysis buffer but contained no lysozyme, deoxyribonuclease I, MgCl2 or protease inhibitor and the NaCl concentration of the buffer was adjusted according to the requirements for charging the protein onto the column. Each column was eluted with a NaCl gradient which varied in length from 5-50 column volumes depending on the column type. After the final chromatography step, the resulting purity of the enzyme is >90% based on SDS-PAGE analysis. The enzyme was aliquoted and stored at −80° C.
Standard HCV NS5B RdRp enzyme assay. HCV RdRp genotype 1b assays were run in a final volume of 60 μl in 96 well plates (Corning 3600). The assay buffer is composed of 20 mM Hepes, pH 7.5, 2.5 mM KCl, 2.5 mM MgCl2, 1 mM DTT, 1.6 U RNAse inhibitor (Promega N2515), 0.01 mg/ml BSA (Sigma B6917), and 2% glycerol. All compounds were serially diluted (3-fold) in DMSO and diluted further in water such that the final concentration of DMSO in the assay was 2%. HCV RdRp genotype 1b enzyme was used at a final concentration of 28 nM. A polyA template was used at 6 nM, and a biotinylated oligo-dT12 primer was used at 180 nM final concentration. Template was obtained commercially (Amersham 27-4110). Biotinylated primer was prepared by Sigma Genosys. 3H-UTP was used at 0.6 μCi (0.29 μM total UTP). Reactions were initiated by the addition of enzyme, incubated at 30° C. for 60 min, and stopped by adding 25 μl of 50 mM EDTA containing SPA beads (4 μg/pl, Amersham RPNQ 0007). Plates were read on a Packard Top Count NXT after >1 hr incubation at room temperature.
Modified HCV NS5B RdRp enzyme assay. A modified enzyme assay was performed essentially as described for the standard enzyme assay except for the following: The biotinylated oligo dT12 primer was precaptured on streptavidin-coated SPA beads by mixing primer and beads in assay buffer and incubating at room temperature for one hour. Unbound primer was removed after centrifugation. The primer-bound beads were resuspended in 20 mM Hepes buffer, pH 7.5 and used in the assay at final concentrations of 20 nM primer and 0.67 μg/μl beads. Order of addition in the assay: enzyme (1.75 nM) was added to diluted compound followed by the addition of a mixture of template (0.36 nM), 3H-UTP (0.6 μCi, 0.29 μM), and primer-bound beads, to initiate the reaction; concentrations given are final. Reactions were allowed to proceed for 4 hours at 30° C.
IC50 values for compounds were determined using seven different [I]. […]

HCV replicon = HCV replicon FRET / luciferase assay; format: cell-based; details: Hepatitis C virus; HCV replicon cells; 50% reduction in FRET or luciferase activity; read-out: EC50
Protocol: FRET Assay Preparation. The HCV FRET screening assay was performed in 96-well cell culture plates. The FRET peptide (Anaspec, Inc.) (Taliani et al., Anal. Biochem. 1996, 240, 60-67) contains a fluorescence donor, EDANS, near one end of the peptide and an acceptor, DABCYL, near the other end. The fluorescence of the peptide is quenched by […] resonance energy transfer (RET) between the donor and the acceptor, but as the NS3 protease cleaves the peptide the products are released from RET quenching and the fluorescence of the donor becomes apparent. The assay reagent was made as follows: 5× cell Luciferase cell culture lysis reagent from Promega (#E153A) diluted to 1× with dH2O, NaCl added to 150 mM final, the FRET peptide diluted to 20 μM final from a 2 mM stock.
To prepare plates, HCV replicon cells, with or without a Renilla luciferase reporter gene, were trypsinized and plated in a 96-well plate with titrated test compounds added in columns 3 through 12; columns 1 and 2 contained a control compound (HCV control inhibitor), and the bottom row contained cells with DMSO only. The plates were then placed in a CO2 incubator at 37° C.
Assays. Subsequent to addition of the test compounds described above (FRET Assay Preparation), at various times the plate was removed and Alamar blue solution (Trek Diagnostics, #00-100) was added to measure cellular toxicity. After reading in a Cytoflour 4000 instrument (PE Biosystems), plates were rinsed with PBS and then used for FRET assay by the addition of 30 ul of the FRET peptide assay reagent described above (FRET Assay Preparation) per well. The plate was then placed into the Cytoflour 4000 instrument which had been set to 340 excite/490 emission, automatic mode for up to 20 cycles and the plate read in a kinetic mode. Typically, the signal to noise using an endpoint analysis after the reads was at least three-fold. Alternatively, after Alamar blue reading, plates were rinsed with PBS, then used for luciferase assay using the Promega Dual-Glo Luciferase Assay System or the Promega EnduRen Live Cell Substrate assay.
Compound analysis was performed by quantification of the relative HCV replicon inhibition and the relative cytotoxicity values. To calculate cytoxicity values, the average Alamar Blue fluorescence signals from the control wells were set as 100% non-toxic. The individual signals in each of the compound test wells were then divided by the average control signal and multiplied by 100% to determine […]. To calculate the HCV replicon inhibition values, an average background value was obtained from the two wells containing the highest amount of HCV control inhibitor at the end of the assay period. These numbers were similar to those obtained from naive Huh-7 cells. The background numbers were then subtracted from the average signal obtained from the control wells and this number was used as 100% activity. The individual signals in each of the compound test wells were then divided by the averaged control values after background subtraction and multiplied by 100% to determine percent activity. EC50 values were calculated as the concentration which caused a 50% reduction in FRET or luciferase activity. The two numbers generated for the compound plate, percent cytoxicity and percent activity, were used to determine compounds of interest for further analysis.

T1 sequence (Q9WMX2 2420-2992): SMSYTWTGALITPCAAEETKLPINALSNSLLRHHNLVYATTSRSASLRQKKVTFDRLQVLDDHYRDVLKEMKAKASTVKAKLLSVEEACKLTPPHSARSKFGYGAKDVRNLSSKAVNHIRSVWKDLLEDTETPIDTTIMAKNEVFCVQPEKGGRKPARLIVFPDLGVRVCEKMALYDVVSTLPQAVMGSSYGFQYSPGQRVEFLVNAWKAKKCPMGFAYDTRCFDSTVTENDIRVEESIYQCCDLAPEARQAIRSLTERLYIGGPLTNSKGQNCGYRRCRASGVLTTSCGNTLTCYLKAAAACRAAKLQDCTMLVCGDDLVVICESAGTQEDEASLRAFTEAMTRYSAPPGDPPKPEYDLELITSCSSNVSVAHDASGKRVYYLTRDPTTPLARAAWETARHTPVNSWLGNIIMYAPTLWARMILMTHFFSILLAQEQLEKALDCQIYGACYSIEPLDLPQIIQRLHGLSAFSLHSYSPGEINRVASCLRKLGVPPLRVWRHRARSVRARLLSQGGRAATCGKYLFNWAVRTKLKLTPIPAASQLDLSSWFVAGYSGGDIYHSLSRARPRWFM

Row | Compound | IC50 (HCV NS5B) [nM] | EC50 (HCV replicon) [nM]
1 | COc1ccc2c(c1)C1CC1(C(=O)N(C)CC(=O)N1CCOCC1)Cn1c-2c(C2CCCCC2)c2ccc(C(=O)NS(=O)(=O)N(C)C)cc21 (stereo not drawn) | 3 to 1000 | 3 to 1000
2 | COc1ccc2c(c1)C1CC1(C(=O)N1CCN(c3cnccn3)CC1)Cn1c-2c(C2CCCCC2)c2ccc(C(=O)NS(=O)(=O)C3CC3)cc21 (stereo not drawn) | 3 to 1000 | 3 to 1000
3 | COc1ccc2c(c1)C1CC1(C(=O)O[C@@H]1C[C@H](C)CC[C@H]1C(C)C)Cn1c-2c(C2CCCCC2)c2ccc(C(=O)NS(=O)(=O)N(C)C)cc21 (stereo partly drawn) | 3 to 1000 | > 1000
4 | COc1ccc2c(c1)C1CC1(C(=O)N(C)CC1(C3CCCCC3)CCCCC1)Cn1c-2c(C2CCCCC2)c2ccc(C(=O)NS(=O)(=O)N(C)C)cc21 (stereo not drawn) | 3 to 1000 | 3 to 1000
5 | COc1ccc2c(c1)C1CC1(C(=O)N1CCNC(c3ccccc3)C1)Cn1c-2c(C2CCCCC2)c2ccc(C(=O)NS(=O)(=O)N(C)C)cc21 (stereo not drawn) | 3 to 1000 | 3 to 1000
6 | COc1ccc2c(c1)C1CC1(C(=O)N1CCNC(c3cccc(Cl)c3)C1)Cn1c-2c(C2CCCCC2)c2ccc(C(=O)NS(=O)(=O)N(C)C)cc21 (stereo not drawn) | 3 to 1000 | 3 to 1000
7 | COc1ccc2c(c1)C1CC1(C(=O)N1CCNC(=O)CC1)Cn1c-2c(C2CCCCC2)c2ccc(C(=O)NS(=O)(=O)N(C)C)cc21 (stereo not drawn) | 3 to 1000 | 3 to 1000
8 | COc1ccc2c(c1)C1CC1(C(=O)N1CCCN(Cc3ccccc3)CC1)Cn1c-2c(C2CCCCC2)c2ccc(C(=O)NS(=O)(=O)N(C)C)cc21 (stereo not drawn) | 3 to 1000 | 3 to 1000
9 | COc1ccc2c(c1)C1CC1(C(=O)N1CCCN(C(C)=O)CC1)Cn1c-2c(C2CCCCC2)c2ccc(C(=O)NS(=O)(=O)N(C)C)cc21 (stereo not drawn) | 3 to 1000 | 3 to 1000
10 | COc1ccc2c(c1)C1CC1(C(=O)N1CCNC(c3ccc(F)cc3)C1)Cn1c-2c(C2CCCCC2)c2ccc(C(=O)NS(=O)(=O)N(C)C)cc21 (stereo not drawn) | 3 to 1000 | 3 to 1000
11 | COc1ccc(C2CN(C(=O)C34CC3c3cc(OC)ccc3-c3c(C5CCCCC5)c5ccc(C(=O)NS(=O)(=O)N(C)C)cc5n3C4)CCN2)cc1 (stereo not drawn) | 3 to 1000 | 3 to 1000
12 | COc1ccc2c(c1)C1CC1(C(=O)N1CCNC(c3ccc(Cl)cc3)C1)Cn1c-2c(C2CCCCC2)c2ccc(C(=O)NS(=O)(=O)N(C)C)cc21 (stereo not drawn) | 3 to 1000 | 3 to 1000
13 | COc1ccc2c(c1)C1CC1(C(=O)N1CCCN(Cc3cccnc3)CC1)Cn1c-2c(C2CCCCC2)c2ccc(C(=O)NS(=O)(=O)N(C)C)cc21 (stereo not drawn) | 3 to 1000 | 3 to 1000
14 | COc1ccc2c(c1)C1CC1(C(=O)N1CCCN(Cc3cccnc3)CC1)Cn1c-2c(C2CCCCC2)c2ccc(C(=O)NS(=O)(=O)C3CC3)cc21 (stereo not drawn) | 3 to 1000 | 3 to 1000
15 | COc1ccc2c(c1)C1CC1(C(=O)N1CCC[C@H]1CN1CCCC1)Cn1c-2c(C2CCCCC2)c2ccc(C(=O)NS(=O)(=O)C3CC3)cc21 (stereo partly drawn) | 3 to 1000 | 3 to 1000
16 | COc1ccc2c(c1)C1CC1(C(=O)N1CCCN(C(=O)OC(C)(C)C)CC1)Cn1c-2c(C2CCCCC2)c2ccc(C(=O)NS(=O)(=O)C(C)C)cc21 (stereo not drawn) | 3 to 1000 | 3 to 1000
17 | COc1ccc2c(c1)C1CC1(C(=O)N1CCCN(C(=O)OC(C)(C)C)CC1)Cn1c-2c(C2CCCCC2)c2ccc(C(=O)NS(C)(=O)=O)cc21 (stereo not drawn) | 3 to 1000 | 3 to 1000
18 | COc1ccc2c(c1)C1CC1(C(=O)N1CCN(C)CC1c1ccccc1)Cn1c-2c(C2CCCCC2)c2ccc(C(=O)NS(C)(=O)=O)cc21 (stereo not drawn) | 3 to 1000 | 3 to 1000
19 | COc1ccc2c(c1)C1CC1(C(=O)N1CCCN(Cc3cccnc3)CC1)Cn1c-2c(C2CCCCC2)c2ccc(C(=O)NS(C)(=O)=O)cc21 (stereo not drawn) | 3 to 1000 | 3 to 1000
20 | COc1ccc2c(c1)C1CC1(C(=O)N1CCCN(Cc3cccnc3)CC1)Cn1c-2c(C2CCCCC2)c2ccc(C(=O)NS(=O)(=O)N3CCC3)cc21 (stereo not drawn) | 3 to 1000 | 3 to 1000
21 | COc1ccc2c(c1)C1CC1(C(=O)N1CCCN(C(=O)OC(C)(C)C)CC1)Cn1c-2c(C2CCCCC2)c2ccc(C(=O)NS(=O)(=O)N3CCC3)cc21 (stereo not drawn) | 3 to 1000 | 3 to 1000
22 | COc1ccc2c(c1)C1CC1(C(=O)N1CCN(C)CC1c1ccccc1)Cn1c-2c(C2CCCCC2)c2ccc(C(=O)NS(=O)(=O)N3CCC3)cc21 (stereo not drawn) | 3 to 1000 | 3 to 1000
23 | C=CCN1CCN(C(=O)C23CC2c2cc(OC)ccc2-c2c(C4CCCCC4)c4ccc(C(=O)NS(=O)(=O)C(C)C)cc4n2C3)CC1 (stereo not drawn) | 3 to 1000 | 3 to 1000
24 | COc1ccc2c(c1)C1CC1(C(=O)N1CCN(C)C[C@@H]1c1ccccc1)Cn1c-2c(C2CCCCC2)c2ccc(C(=O)NS(=O)(=O)C(C)C)cc21 (stereo partly drawn) | 3 to 1000 | 3 to 1000
